Measured values from ChEMBL document CHEMBL3769374, “Novel N-thiazolyl piperazine-1-carboxamide CCR2 antagonists investigation of an unexpected reaction with glutathione” (Medchemcomm, 2015).

What was measured:
[1] = Glutathione reactivity at 50 uM measured over 18 hrs by LC-UV method
[2] = biological target: C-C chemokine receptor type 2 (Homo sapiens, UniProt P41597); experiment: Antagonist activity at human C-C chemokine receptor type 2 expressed in THP-1 cells assessed as inhibition of CCL2-induced calcium flux preincubated for 10 mins followed by CCL2 addition by Fluo-4 dye based FLIPR assay; format: functional, cell-based
Chain of C-C chemokine receptor type 2 (Homo sapiens, UniProt P41597) (P41597 whole entry): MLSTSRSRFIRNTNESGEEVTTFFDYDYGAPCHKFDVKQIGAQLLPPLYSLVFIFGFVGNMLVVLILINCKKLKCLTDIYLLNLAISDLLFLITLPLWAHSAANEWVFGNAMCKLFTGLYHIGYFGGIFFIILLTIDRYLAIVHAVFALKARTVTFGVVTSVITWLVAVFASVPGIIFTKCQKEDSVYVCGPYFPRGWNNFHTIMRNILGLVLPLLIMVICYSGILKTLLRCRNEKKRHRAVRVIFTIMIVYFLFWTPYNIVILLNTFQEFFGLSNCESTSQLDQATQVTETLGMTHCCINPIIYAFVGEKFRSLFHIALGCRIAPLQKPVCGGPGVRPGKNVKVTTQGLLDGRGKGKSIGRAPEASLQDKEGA

[3] = biological target: T1, C-C chemokine receptor type 2 (Rattus norvegicus, UniProt O55193); experiment: Antagonist activity at rat C-C chemokine receptor type 2 assessed as inhibition of CCL2-induced calcium flux; format: functional
T1 sequence (O55193 whole entry): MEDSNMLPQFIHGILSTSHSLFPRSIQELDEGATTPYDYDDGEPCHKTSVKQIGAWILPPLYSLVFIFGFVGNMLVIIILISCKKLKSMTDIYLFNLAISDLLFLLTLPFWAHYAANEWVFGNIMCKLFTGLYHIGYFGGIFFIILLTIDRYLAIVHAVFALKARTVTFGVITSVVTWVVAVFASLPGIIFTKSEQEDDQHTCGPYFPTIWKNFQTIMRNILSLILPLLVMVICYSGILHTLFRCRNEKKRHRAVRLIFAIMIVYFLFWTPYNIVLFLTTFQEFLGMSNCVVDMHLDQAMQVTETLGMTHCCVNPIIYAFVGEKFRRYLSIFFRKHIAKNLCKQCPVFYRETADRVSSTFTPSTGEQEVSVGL

[4] = Glutathione reactivity assessed as half life of compound at 50 uM measured over 18 hrs by LC-UV method; format: physicochemical; conditions: glutathione solution (chemical reactivity test)

IC50 [2] [nM] | IC50 [3] [nM] | SMILES | Drug metabolism [1] | half-life at 50 µM [4] [h]
< 0.45 | – | Cc1nc(NC(=O)N2CCN(C(=O)[C@H]3CN(C(C)(C)C)CCN3)CC2)sc1Br | – | –
0.65 | – | Cc1nc(NC(=O)N2CCN(C(=O)[C@H]3CN(C(C)(C)C)CCN3)CC2)sc1Cl | – | –
0.13 | 1.3 | CC(C)(C)N1CCN[C@@H](C(=O)N2CCN(C(=O)Nc3nc(C(F)(F)F)c(Cl)s3)CC2)C1 | Metabolite not detected | –
< 0.45 | – | CC(C)(C)N1CCN[C@@H](C(=O)N2CCN(C(=O)Nc3nc(C4CC4)c(Cl)s3)CC2)C1 | – | –
41 | – | COc1sc(NC(=O)N2CCN(C(=O)[C@H]3CN(C(C)(C)C)CCN3)CC2)nc1C | Metabolite not detected | –

The next lines start with the molecule.

SMILES | IC50 [2] [nM] | IC50 [3] [nM] | Drug metabolism [1] | half-life at 50 µM [4] [h]
CC(C)N1CCN[C@@H](C(=O)N2CCN(C(=O)Nc3nc(C(C)(C)C)c(F)s3)CC2)C1 | 2.7 | – | Metabolite not detected | –
CC(C)N1CCN[C@@H](C(=O)N2CCN(C(=O)Nc3nc(C(C)(C)C)c(Cl)s3)CC2)C1 | 2.3 | – | – | –
CC(C)(C)N1CCN[C@@H](C(=O)N2CCN(C(=O)Nc3ncc(Cl)s3)CC2)C1 | 7.4 | – | Metabolite not detected | –
CC(C)(C)N1CCN[C@@H](C(=O)N2CCN(C(=O)Nc3ncc(F)s3)CC2)C1 | 9.2 | – | Metabolite not detected | –
CCc1nc(NC(=O)N2CCN(C(=O)[C@H]3CN(C(C)C)CCN3)CC2)sc1Cl | 1.7 | – | – | –
O=[N+]([O-])c1ccc(CCl)cc1 | – | – | – | 3.6
CC(C)c1nc(NC(=O)N2CCN(C(=O)[C@H]3CN(C(C)C)CCN3)CC2)sc1Cl | 1.2 | – | – | –
CC(=O)Nc1nc(C)c(Br)s1 | – | – | Metabolite not detected | –
CC(C)(C)N1CCN[C@@H](C(=O)N2CCN(C(=O)Nc3nc(C4CC4)cs3)CC2)C1 | 1.1 | – | Metabolite not detected | –
